Assay results published in patent US6723699B1, “Treating disorders by application of insulin-like growth factors and analogs” (Cephalon, Inc., priority 1989, dated 2004).
Where no end group is shown, it is not given here. [ ]: non-standard residue; d: D form. Tyr(3,5-I2) = N[C@@H](Cc1cc(I)c(O)c(I)c1)C(=O)O

Columns and labels:
[1] = test system: E18 cortical neuronal cultures; assay: Cortical neuronal cell survival, calcein-AM fluorometric viability assay; format: cell-based, rat; conditions: for total number of cells surviving relative to control (in words): 100 μM peptide, 4 days, insulin/serum-free media
Description: To determine whether carboxy-terminal linear peptide derivatives of IGFs can promote the survival of cortical neuronal cells, dissociated cultures of embryonic rat cortex were prepared and assayed for the total number of viable cells present after incubation in the presence or absence of peptide. Cortices were dissected from E18 embryonic rats, dissociated by enzymatic digestion or mechanical dissociation and seeded at a density of 6.25×10^4 cells/cm^2 in defined insulin/serum-free media (Bottenstein and Sato, PNAS, 76:514-517, (1979)) in the presence or absence of 100 μM peptide. […] This compound is taken up by all cells but can only be converted to a fluorescent derivative by live cells. The relative fluorescence values obtained reflect the total viable cell number. […] NO: 5) (Example 22), and the amino acid sequence […] To determine the potency of the carboxy terminal peptides we analyzed the ability of peptides to promote cell survival. We measured the total number of surviving cells within cortical neuronal cultures relative to basal control cultures. FIG. 16 illustrates the concentration-response relationship for peptide […] All peptides examined are effective within the micromolar concentration range in the fluorometric viability assay.

IGF-I receptor = molecular target: T1, IGF-I receptor (Rattus norvegicus, UniProt P24062); assay: 125I-[Threonine59]IGF-I displacement (IGF-I receptor competition) assay, rat brain homogenate; format: binding; conditions: for PERCENT MAX. BOUND: peptide 100 μM
T1 construct: Brain tissue containing the cerebral cortex and cerebellum was dissected from adult Sprague-Dawley rats; from tissue; host or cells: adult Sprague-Dawley rat brain (cerebral cortex and cerebellum), homogenate pellet
T1 sequence (P24062 31-737 limits assumed): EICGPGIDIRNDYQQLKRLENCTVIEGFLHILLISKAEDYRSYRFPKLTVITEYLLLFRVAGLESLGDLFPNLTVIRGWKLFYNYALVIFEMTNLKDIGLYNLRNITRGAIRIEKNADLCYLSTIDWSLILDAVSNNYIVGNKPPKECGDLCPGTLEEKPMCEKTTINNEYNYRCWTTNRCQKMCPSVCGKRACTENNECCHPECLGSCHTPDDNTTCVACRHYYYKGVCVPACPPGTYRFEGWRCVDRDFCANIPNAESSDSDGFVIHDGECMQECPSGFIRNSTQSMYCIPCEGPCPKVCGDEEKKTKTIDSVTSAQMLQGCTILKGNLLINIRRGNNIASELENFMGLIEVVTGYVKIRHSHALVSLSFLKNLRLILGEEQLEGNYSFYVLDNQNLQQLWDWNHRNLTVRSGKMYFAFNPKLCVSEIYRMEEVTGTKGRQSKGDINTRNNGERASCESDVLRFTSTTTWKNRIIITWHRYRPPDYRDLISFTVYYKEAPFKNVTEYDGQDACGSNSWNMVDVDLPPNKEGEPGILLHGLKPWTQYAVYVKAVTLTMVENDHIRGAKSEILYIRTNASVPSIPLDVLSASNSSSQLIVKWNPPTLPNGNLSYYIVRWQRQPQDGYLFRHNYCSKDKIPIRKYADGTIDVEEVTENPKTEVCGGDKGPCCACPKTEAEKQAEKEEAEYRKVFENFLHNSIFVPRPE
T1 sequence (P24062 742-1370 partner limits assumed): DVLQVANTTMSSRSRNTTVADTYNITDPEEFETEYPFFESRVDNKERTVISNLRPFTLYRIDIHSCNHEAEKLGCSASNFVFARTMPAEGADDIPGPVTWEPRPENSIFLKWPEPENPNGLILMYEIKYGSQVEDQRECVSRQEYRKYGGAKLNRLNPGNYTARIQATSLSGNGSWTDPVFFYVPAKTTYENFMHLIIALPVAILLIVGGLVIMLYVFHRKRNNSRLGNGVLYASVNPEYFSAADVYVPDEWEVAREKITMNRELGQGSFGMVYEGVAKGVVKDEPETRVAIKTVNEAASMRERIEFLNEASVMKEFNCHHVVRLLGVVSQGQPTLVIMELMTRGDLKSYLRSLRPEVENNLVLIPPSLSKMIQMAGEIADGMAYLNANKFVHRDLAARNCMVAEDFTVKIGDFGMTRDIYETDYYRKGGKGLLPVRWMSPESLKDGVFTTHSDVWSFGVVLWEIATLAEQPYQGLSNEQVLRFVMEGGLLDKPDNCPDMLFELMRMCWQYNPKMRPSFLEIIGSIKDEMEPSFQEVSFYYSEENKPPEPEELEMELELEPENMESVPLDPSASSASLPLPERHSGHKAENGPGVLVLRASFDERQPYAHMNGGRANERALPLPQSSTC
Description: Brain tissue containing the cerebral cortex and cerebellum was dissected from adult Sprague-Dawley rats (Hilltop Lab Animals, Inc. Scottsdale, Pa.) and homogenized at low power for 5 minutes in a Brinkmann Polytron homogenizer (Westbury, N.Y.) containing 50 volumes of ice-cold buffer consisting of 10 mM HEPES, 0.5% BSA, 0.0125% NEM, 0.025% bacitracin, and 100 KIU/ml aprotinin, pH 7.6 (Bohannon et al., Endocrinology 119:943-945 (1986). Following homogenization, the tissue was collected after centrifugation at 7800×g for 20 minutes and resuspended in 10 volumes of assay buffer. Tissue (50 μl), 100 μl ^125I-[Threonine^59]IGF-I (20 pM), and 50 μl of buffer or peptides of varying concentration were added to 96-well plates and incubated on ice for 3 hours. After the incubation period, the tissue was collected on Whatman GF/C filters that had been pre-soaked in 0.01% polyethylenimine and washed four times with ice-cold assay buffer using a Brandel cell harvester (Gaithersburg, Md.). The filters were removed and the bound ^125I-[Threonine 59]IGF-I was measured using a Beckman Model 5500B Gamma Counter.

[2] = test system: 125I-[Threonine59]IGF-I binding to brain tissue sections; assay: 125I-[Threonine59]IGF-I binding displacement on rat brain tissue sections
Description: Brains were removed intact from adult Sprague-Dawley rats, frozen on powdered dry ice, and cut into 20 μm sections (at the level of the cerebellum and brain stem) which were
thaw-mounted onto gelatin-coated glass microscope slides (Herkenham and Pert, J. Neurosci. 2:1129-1149 (1982)). Using a modification of the method of Bohannon et al. (1986), the tissue sections were covered with 250 μl of HEPES assay buffer (see Example 1) containing 0.01 nM ^125I-[Threonine^59]IGF-I alone or in combination with unlabeled IGF-I, IGF-II, or synthetic peptide fragments thereof. The sections were incubated at 4° C. for 24 hours and then rinsed in three 1-minute changes (200 ml each) of ice-cold HEPES assay buffer. The tissue sections were then wiped off the slides with filter paper, and the tissue-bound radioactivity was measured in a Beckman Model 5500B Gamma Counter.

[3] = test system: brain ornithine decarboxylase; assay: Induction of brain ornithine decarboxylase after intracerebral injection, 4 day old rats; format: in vivo, rat; conditions: 6 hours
Description: The in vivo activity of IGF-I, IGF-II or synthetic peptide derivatives of these molecules was tested using a biochemical marker for CNS neurotrophic activity, the induction of brain ornithine decarboxylase. The induction (i.e. increased activity) of ornithine decarboxylase has been reported to be a general marker for the actions of a variety of trophic factors. (Schwartz et al., Dev. Brain Res. 1:403-413 (1981); Kanje et al., Brain Res. 381:24-28 (1986); Russell et al., Life Sci. 19:1297-1306 (1976); MacDonnell et al. Proc. Natl. Acad. Sci. USA 74, 4681-4684 (1977); […] et al. Proc. Natl. Acad. Sci. USA 82, 4365-4368 (1985)). Sprague-Dawley rats, 4 days old, were injected intracerebrally (in the area of the lateral ventricle) with 5 μl of 0.1 M phosphate-buffered saline (PBS) containing IGF-I, IGF-II or a synthetic peptide derivative (1.25-2.5 μg dose, with 6 animals per treatment group). After 6 hours, the brains were removed, and ornithine decarboxylase was assayed essentially as described by Lewis et al., Proc. Natl. Acad. Sci. USA 75:1021-1023 (1978).

[4] = test system: cultured rat cortical cells; assay: [3H]-leucine incorporation in cultured rat cortical cells; format: cell-based; conditions: low density 24 hour mixed cortical cultures
Description: (§1) The ability of IGF-I and a synthetic derivative of IGF-II (IGF-II(54-67)) to increase the incorporation of [^3H]-leucine and to promote the survival of neurite bearing cells was examined in cultured rat cortical cells (the numbers “54-67” in IGF-II indicate the fragment includes amino acid residues 54-67 of native IGF-II).
(§2) Measurements were performed, using standard techniques known to those skilled in the art, on dissociated cortical cells obtained from day 18-19 embryonic rats. Cells were seeded at 1.5×10^4/cm^2 on poly-1-ornithine-laminin coated plastic tissue culture cells in serum-free N2 medium (Bottenstein et al. Proc. Natl. Acad. Sci. U.S.A. 76: 514-517 (1978)). [^3H]-leucine was added to cells at plating for the incorporation assay. Cultures were terminated 24 hours after plating and measured for either [^3H]-leucine incorporation or for the number of neuritic cells by microscopic examination.

cortical neurons = assay: Survival of neurite bearing cells in cultured rat cortical cells; format: cell-based; conditions: 24 hours after plating
Description: as §1, §2

[5] = test system: E18 rat cortices cultures; assay: Cortical neurite outgrowth / regeneration; format: cell-based; conditions: 100 μM peptide, 96 hours
Description: To determine whether carboxy-terminal linear peptides of IGFs could promote cortical neurite regeneration, dissociated preparations of E18 rat cortices were cultured in defined insulin/serum-free media in the presence or absence of 100 μM peptides: IGF-II(54-67) (SEQ ID NO:3), IGF-I(55-70) (SEQ ID NO:4), peptide TYCAPAKSE (SEQ ID NO:1), peptide EPYCAPPAKSE (SEQ ID NO:5), IGF-II(54-67; D-Y) (SEQ ID NO:45) and IGF-II(58-67) (SEQ ID NO:2). The cultures were observed 96 hours after peptide exposure and photomicrographs were taken.

[6] = format: in vitro ADME
Description: The peptides of Examples 22 and 23 are modified peptides containing the D isomer of tyrosine (D-Y) at position 59 within IGF-II amino acids 54-67 or 58-67. These modifications were made to prevent peptide bond degradation due to enzymatic cleavage amino terminal to position 60 of IGF-II(54-67) and (58-67). Using a non-denaturing HPLC size exclusion chromatography technique the integrity of peptides IGF-II(54-67) and IGF-II(58-67) was analyzed before and after incubation with cells.

Substance	total number of cells surviving relative to control (in words) [1]	other results
ALLEKYCAKPAKSE [ALLEK YCAKP AKSE]	increased the total number of cells surviving	
ALLET YCATP AKSE (ALLETYCATPAKSE) [IGF-II(54-67)]	increased the total number of cells surviving	PERCENT MAX. BOUND (IGF-I receptor): 94%; displacement of 125I-[Threonine59]IGF-I (in words) (IGF-I receptor; rat brain homogenate): not significantly effective displacers; PERCENT MAX. BOUND ([2]; peptide .025 mM): 132%; PERCENT MAX. BOUND ([2]; peptide .25 mM): 167%; brain ornithine decarboxylase activity (in words) [3]: increased brain ornithine decarboxylase activity; [3H]-leucine incorporation (in words) [4]: increased [^3H]-leucine incorporation; survival of cortical neurons (neurite bearing cells) (in words) (cortical neurons): increased the survival of cortical neurons; neurite outgrowth / regeneration (in words) [5]: neurite regenerative responses were observed
ALLETDYCATPAKSE (ALLET[dY]CATPAKSE) [IGF-II(54-67; D-Y)]	increased the total number of cells surviving	stability against degradation when incubated with cells (in words) [6]: stabilized against degradation when incubated with cells; neurite outgrowth / regeneration (in words) [5]: neurite regenerative responses were observed
APLKP AKSA (APLKPAKSA) [IGF-I(62-70)]		PERCENT MAX. BOUND (IGF-I receptor): 83%
APSTCEYKA [APSTC EYKA]	increased the total number of cells surviving	
CAPAKSE [CAPAK SE]	increased the total number of cells surviving	
CATPA KSE (CATPAKSE) [IGF-II (60-67)]	increased the total number of cells surviving	
EALLETYCATPAKSE [EALLE TYCAT PAKSE]	increased the total number of cells surviving	
EPYCAPPAKSE	increased the total number of cells surviving	neurite outgrowth / regeneration (in words) [5]: neurite regenerative responses were observed
GYGSS SRRAP QT (GYGSSSRRAPQT) [IGF-I(30-41)]		PERCENT MAX. BOUND (IGF-I receptor): 94%
LETYC ATP (LETYCATP) [IGF-II (56-63)]	increased the total number of cells surviving	
RRLEMYCAPLKPAKSA [IGF-I(55-70)]	increased the total number of cells surviving	neurite outgrowth / regeneration (in words) [5]: neurite regenerative responses were observed
TDYCAPAKSE (T[dY]CAPAKSE)	increased the total number of cells surviving	
TDYCATPAKSE (T[dY]CATPAKSE) [IGF-II(58-67; D-Y)]	increased the total number of cells surviving	
TPAKS E (TPAKSE) [IGF-II(62-67)]		PERCENT MAX. BOUND (IGF-I receptor): 83%
TY(I2)CAP AKSE (T[Tyr(3,5-I2)]CAPAKSE) [iodinated-TYCAPAKSE]	increased the total number of cells surviving	
TYCAP A (TYCAPA)	increased the total number of cells surviving	
TYCAPAKSE	increased the total number of cells surviving	concentration-response of cortical neuronal cell survival (in words) ([1]; relative to basal control cultures): promotes cortical neuronal cell survival in a dose-dependent manner; neurite outgrowth / regeneration (in words) [5]: neurite regenerative responses were observed
TYCAT PAK (TYCATPAK) [IGF-II (58-65)]	increased the total number of cells surviving	
TYCATPAKSE [IGF-II(58-67)]	increased the total number of cells surviving	neurite outgrowth / regeneration (in words) [5]: neurite regenerative responses were observed
YCAPA	increased the total number of cells surviving	
YCAPAKSE [YCAPA KSE]	increased the total number of cells surviving	
